“And” between values parts separate entries of the source, which are not always exact repeats. Identical values can stand only once. Like-named read-outs stand apart in the source and are kept apart here.
How the values were obtained:
[1] = Pharmacokinetic studies in rat (i.v.); assay type: in vivo; conditions: for concentration at 0.25 h / concentration at 1 h / concentration at 4 h / half-life / AUC(0-t): male, Sprague-Dawley, rat, plasma
Experimental: Animals: Male Sprague-Dawley rats (˜225-350 g) from Charles River Labs were acclimatized for a minimum of 5 days prior to start of study procedures. Body weights were recorded on the day of dosing.
Any abnormalities were documented including presence/absence of wet dog shakes/back muscle contractions (WDS/BMC).
Dosing: Formulations were administered intravenously (i.v.) via the tail vein using a 25 G needle connected to a 1 cc syringe.
The Compounds of Formula (I) were freshly prepared at the appropriate concentrations in 5% Tween-80 in saline.
Blood collection time (h): 0.25, 1 and 4.
Volume/time-point: ˜0.25 mL […] (saphenous vein).
Instrumentation: AB Sciex QTRAP 4000 or 6500 MS/MS system equipped with an LC system with a binary pump, a solvent degasser, a thermostatted column compartment and a multiplate autosampler.
Analysis software: Phoenix® WinNonlin® 8.3 (Pharsight, Certara, Mountainview, CA).
Analysis methods: non-compartmental analysis, linear up/log down trapezoidal rule.
PK parameters: t1/2 and AUC0-tlast were be estimated.
Volume/time-point: ˜0.25 mL (saphenous vein).
PK parameters: t1/2 and AUC0-tlast were estimated.

human 5-HT2A receptor = human 5-HT2A receptor (Homo sapiens, UniProt P28223); test: Human 5-HT2A radioligand binding assay ([3H]-ketanserin); parameters: expressed in transfected cells; host or cells: HTR2A&Gα15-HEK293 (tetracycline induction)
Experimental: The objective of this study was to evaluate the binding properties of exemplary compounds of Formula (I) on 5-hydroxytryptamine receptor 2A (5-HT2A).
1. The assay buffer was prepared following Table 13 below.
Adjust pH to 7.4 followed by […] sterile filtration
2. 8 doses of reference and test compounds starting from 10 mM stock solution as required was prepared by 5-fold serial dilutions with 100% (v/v) DMSO.
3. UniFilter-96 GF/B plate was pretreated: • i. 50 μl/well of 0.5% (v/v) PEI was added to UniFilter-96 […] plates. The plates were sealed and incubated at 4° C. for 3 hrs. • ii. After incubation, the plates were washed 3 times with ice-cold wash buffer (50 mM Tris, pH7.4).
4. The assay plate was prepared: • i. Cell membrane was diluted with assay buffer and 330 μl/well was added to 96 round deep well plates to reach a concentration of 20 μg/well. • ii. 8 concentrations of reference or test compounds were prepared and 110 μl/well was added to 96 round deep well plates. • iii. [3H]-ketanserin was diluted with assay buffer to 5 nM (5×final concentration) and 110 μl/well was added to 96 round deep well plates.
5. The plate was centrifuged at 1000 rpm for 30 secs and then agitated at 600 rpm, R.T. for 5 min. […]
7. The incubation was stopped by vacuum filtration onto GF/B filter plates followed by 4 times washing with ice-cold wash buffer (50 mM Tris, pH7.4).
9. The filter plates were sealed and 40 μl/well of scintillation cocktail was added.
10. The plate was read by using a Microbeta^2 microplate counter.
1. For reference and test compounds, the results were expressed as % Inhibition, using the normalization equation: N=100−100×(U-C2)/(C1-C2), where U is the unknown value, C1 is the average of high controls, and C2 is the average of low controls.
2. The IC50 was determined by fitting percentage of inhibition as a function of compound concentrations with Hill equation using XLfit. […]

Chain of human 5-HT2A receptor (P28223 whole entry): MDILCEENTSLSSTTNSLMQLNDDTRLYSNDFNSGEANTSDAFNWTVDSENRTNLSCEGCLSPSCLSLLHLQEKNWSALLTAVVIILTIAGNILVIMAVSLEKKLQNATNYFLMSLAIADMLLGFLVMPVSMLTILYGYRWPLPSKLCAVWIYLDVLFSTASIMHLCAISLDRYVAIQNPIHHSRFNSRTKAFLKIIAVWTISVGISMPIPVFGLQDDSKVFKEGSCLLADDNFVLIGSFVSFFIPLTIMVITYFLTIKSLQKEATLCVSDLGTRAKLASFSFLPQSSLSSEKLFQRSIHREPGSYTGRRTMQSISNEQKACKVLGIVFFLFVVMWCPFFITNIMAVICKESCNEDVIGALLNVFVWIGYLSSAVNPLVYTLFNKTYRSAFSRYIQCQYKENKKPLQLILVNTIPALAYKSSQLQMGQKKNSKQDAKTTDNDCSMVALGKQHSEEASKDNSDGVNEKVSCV

CSc1ccc2[nH]cc(CCN(C(C)C)C(C)C)c2c1 [Compound I-17, N-Isopropyl-N-(2-(5-(methylthio)-1H-indol-3-yl)ethyl)propan-2-amine]
Plasma concentration ([1]; I-17 1.33 mg/kg i.v., rat plasma, 0.25 h, individual rats R07-R09, 1.33 mg/kg): 197 ng/mL and 259 ng/mL
Plasma concentration ([1]; I-17 1.33 mg/kg i.v., rat plasma, 1 h, individual rats R07-R09, 1.33 mg/kg): 89.3 ng/mL and 120 ng/mL
Plasma concentration ([1]; I-17 1.33 mg/kg i.v., rat plasma, 4 h, individual rats R07-R09, 1.33 mg/kg): 17.7 ng/mL and 15.6 ng/mL
AUC0-tlast ([1]; I-17 1.33 mg/kg i.v., rat plasma, individual rats R07-R09, 1.33 mg/kg): 363 ng·h/mL
Apparent t1/2 ([1]; I-17 1.33 mg/kg i.v., rat plasma, individual rats R07-R09, estimated from 2 points only, 1.33 mg/kg): 67.8 min and 57 min
concentration at 0.25 h ([1]; iv, 1.33 mg/kg, I-17 1.33 mg/kg i.v., rat plasma, 0.25 h, Mean ± SD, read-out: Plasma concentration): 198 ± 60 ng/mL
concentration at 0.25 h ([1]; iv, 1.33 mg/kg, I-17 1.33 mg/kg i.v., rat plasma, 0.25 h, individual rats R07-R09, read-out: Plasma concentration): 139 ng/mL
concentration at 1 h ([1]; iv, 1.33 mg/kg, I-17 1.33 mg/kg i.v., rat plasma, 1 h, Mean ± SD, read-out: Plasma concentration): 103 ± 15.5 ng/mL
concentration at 1 h ([1]; iv, 1.33 mg/kg, I-17 1.33 mg/kg i.v., rat plasma, 1 h, individual rats R07-R09, read-out: Plasma concentration): 101 ng/mL
concentration at 4 h ([1]; iv, 1.33 mg/kg, I-17 1.33 mg/kg i.v., rat plasma, 4 h, Mean ± SD, read-out: Plasma concentration): 19.7 ± 5.39 ng/mL
concentration at 4 h ([1]; iv, 1.33 mg/kg, I-17 1.33 mg/kg i.v., rat plasma, 4 h, individual rats R07-R09, read-out: Plasma concentration): 25.8 ng/mL
half-life ([1]; iv, 1.33 mg/kg, I-17 1.33 mg/kg i.v., rat plasma, Mean ± SD, estimated from 2 points only, read-out: Apparent t1/2 (converted)): 72.6 ± 18.1 min
AUC(0-t) ([1]; iv, 1.33 mg/kg, I-17 1.33 mg/kg i.v., rat plasma, Mean ± SD, read-out: AUC0-tlast): 315 ± 41.4 ng·h/mL
half-life ([1]; iv, 1.33 mg/kg, I-17 1.33 mg/kg i.v., rat plasma, individual rats R07-R09, estimated from 2 points only, read-out: Apparent t1/2 (converted)): 92.4 min
AUC(0-t) ([1]; iv, 1.33 mg/kg, I-17 1.33 mg/kg i.v., rat plasma, individual rats R07-R09, read-out: AUC0-tlast): 291 ng·h/mL
IC50 (human 5-HT2A receptor): 1.98 µM

COc1ccc2[nH]cc(CCN3CC[C@H](OC(F)F)C3)c2c1 [(S) I-67, (S)-3-(2-(3-(Difluoromethoxy)pyrrolidin-1-yl)ethyl)-5-methoxy-1H-indole]
concentration at 0.25 h ([1]; intravenous, rat i.v., 0.25 h, first individual rat (R01/R04), dose 1.37 mg/kg (I-71, I-128), 1.33 mg/kg ((S) I-67), read-out: Plasma concentration): 413 ng/mL
concentration at 0.25 h ([1]; intravenous, rat i.v., 0.25 h, mean of 3 rats, dose 1.37 mg/kg (I-71, I-128), 1.33 mg/kg ((S) I-67), read-out: Plasma concentration, Mean ± SD): 436 ± 32.4 ng/mL
concentration at 0.25 h ([1]; intravenous, rat i.v., 0.25 h, second individual rat (R02/R05), dose 1.37 mg/kg (I-71, I-128), 1.33 mg/kg ((S) I-67), read-out: Plasma concentration): 473 ng/mL
concentration at 0.25 h ([1]; intravenous, rat i.v., 0.25 h, third individual rat (R03/R06), dose 1.37 mg/kg (I-71, I-128), 1.33 mg/kg ((S) I-67), read-out: Plasma concentration): 422 ng/mL
concentration at 1 h ([1]; intravenous, rat i.v., 1 h, first individual rat (R01/R04), dose 1.37 mg/kg (I-71, I-128), 1.33 mg/kg ((S) I-67), read-out: Plasma concentration): 172 ng/mL
concentration at 1 h ([1]; intravenous, rat i.v., 1 h, mean of 3 rats, dose 1.37 mg/kg (I-71, I-128), 1.33 mg/kg ((S) I-67), read-out: Plasma concentration, Mean ± SD): 162 ± 9.07 ng/mL
concentration at 1 h ([1]; intravenous, rat i.v., 1 h, second individual rat (R02/R05), dose 1.37 mg/kg (I-71, I-128), 1.33 mg/kg ((S) I-67), read-out: Plasma concentration): 155 ng/mL
concentration at 1 h ([1]; intravenous, rat i.v., 1 h, third individual rat (R03/R06), dose 1.37 mg/kg (I-71, I-128), 1.33 mg/kg ((S) I-67), read-out: Plasma concentration): 158 ng/mL
concentration at 4 h ([1]; intravenous, rat i.v., 4 h, first individual rat (R01/R04), dose 1.37 mg/kg (I-71, I-128), 1.33 mg/kg ((S) I-67), read-out: Plasma concentration): 5.35 ng/mL
concentration at 4 h ([1]; intravenous, rat i.v., 4 h, mean of 3 rats, dose 1.37 mg/kg (I-71, I-128), 1.33 mg/kg ((S) I-67), read-out: Plasma concentration, Mean ± SD): 6.96 ± 1.54 ng/mL
concentration at 4 h ([1]; intravenous, rat i.v., 4 h, second individual rat (R02/R05), dose 1.37 mg/kg (I-71, I-128), 1.33 mg/kg ((S) I-67), read-out: Plasma concentration): 8.41 ng/mL
concentration at 4 h ([1]; intravenous, rat i.v., 4 h, third individual rat (R03/R06), dose 1.37 mg/kg (I-71, I-128), 1.33 mg/kg ((S) I-67), read-out: Plasma concentration): 7.12 ng/mL
AUC(0-t) ([1]; iv, rat plasma, i.v., first individual rat (R01/R04), dose 1.37 mg/kg (I-71, I-128), 1.33 mg/kg ((S) I-67), read-out: AUC0-tlast): 470 ng·h/mL
half-life ([1]; iv, rat plasma, i.v., first individual rat (R01/R04), estimated from 2 points only, dose 1.37 mg/kg (I-71, I-128), 1.33 mg/kg ((S) I-67), read-out: Apparent t1/2 (converted)): 35.9 min
AUC(0-t) ([1]; iv, rat plasma, i.v., mean of 3 rats, dose 1.37 mg/kg (I-71, I-128), 1.33 mg/kg ((S) I-67), read-out: AUC0-tlast, Mean ± SD): 484 ± 21.1 ng·h/mL
half-life ([1]; iv, rat plasma, i.v., mean of 3 rats, estimated from 2 points only, dose 1.37 mg/kg (I-71, I-128), 1.33 mg/kg ((S) I-67), read-out: Apparent t1/2, Mean ± SD (converted)): 38.2 ± 2.02 min
AUC(0-t) ([1]; iv, rat plasma, i.v., second individual rat (R02/R05), dose 1.37 mg/kg (I-71, I-128), 1.33 mg/kg ((S) I-67), read-out: AUC0-tlast): 508 ng·h/mL
half-life ([1]; iv, rat plasma, i.v., second individual rat (R02/R05), estimated from 2 points only, dose 1.37 mg/kg (I-71, I-128), 1.33 mg/kg ((S) I-67), read-out: Apparent t1/2 (converted)): 39.8 min
AUC(0-t) ([1]; iv, rat plasma, i.v., third individual rat (R03/R06), dose 1.37 mg/kg (I-71, I-128), 1.33 mg/kg ((S) I-67), read-out: AUC0-tlast): 472 ng·h/mL
half-life ([1]; iv, rat plasma, i.v., third individual rat (R03/R06), estimated from 2 points only, dose 1.37 mg/kg (I-71, I-128), 1.33 mg/kg ((S) I-67), read-out: Apparent t1/2 (converted)): 38.8 min
IC50 (human 5-HT2A receptor): 4.88 µM
